pKi: −log10 of the molar value.

From BindingDB's records for doi:10.3109/14756360902797328 (Rheinische Friedrich-Wilhelms-Universitat Bonn, 2009) come the findings set out here.

Common to all, as to assay: Inhibition Assay
The target of assay [1] is Procathepsin L (Bos taurus, UniProt P25975). The conditions noted are these: pH 6; 37 °C. Here is the method:
(§1) Cathepsin enzyme activities were calculated from kinetic measurements performed by fluorimetric detection of the product 7-amino-4-methylcoumarin at 37 C in a stirred cuvette. The wavelengths for excitation and emission were 360nm and 440nm.

Assay [2] has as its target Cathepsin S (Homo sapiens, UniProt P25774). As to conditions: pH 6.5; 37 °C. Here is the method: as §1
Assay [3] addresses T1, Cathepsin K (Homo sapiens, UniProt P43235).
T1 sequence (P43235 whole entry): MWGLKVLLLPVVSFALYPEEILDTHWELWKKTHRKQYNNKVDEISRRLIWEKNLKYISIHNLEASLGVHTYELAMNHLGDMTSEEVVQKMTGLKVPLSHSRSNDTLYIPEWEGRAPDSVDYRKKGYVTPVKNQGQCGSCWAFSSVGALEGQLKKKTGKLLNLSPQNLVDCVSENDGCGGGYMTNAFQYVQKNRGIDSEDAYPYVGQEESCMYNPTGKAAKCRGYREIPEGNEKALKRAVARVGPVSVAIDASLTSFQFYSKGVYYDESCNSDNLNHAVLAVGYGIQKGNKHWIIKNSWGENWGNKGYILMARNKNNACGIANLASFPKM
The conditions noted are these: pH 5; 37 °C. How it is done:
as §1

Assay [4] addresses T2, Papain (Carica papaya, UniProt P00784).
T2 sequence (P00784 whole entry): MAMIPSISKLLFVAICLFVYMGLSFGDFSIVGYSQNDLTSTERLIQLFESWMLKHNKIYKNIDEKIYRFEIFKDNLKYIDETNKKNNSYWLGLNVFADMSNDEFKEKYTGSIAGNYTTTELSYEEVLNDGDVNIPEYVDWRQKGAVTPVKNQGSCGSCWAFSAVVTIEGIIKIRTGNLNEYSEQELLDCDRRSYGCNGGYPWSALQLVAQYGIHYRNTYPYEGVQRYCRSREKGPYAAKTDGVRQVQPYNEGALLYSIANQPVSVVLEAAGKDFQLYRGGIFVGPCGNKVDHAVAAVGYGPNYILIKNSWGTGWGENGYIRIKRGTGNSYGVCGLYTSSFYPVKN
As to conditions: pH 6.5; 25 °C. How it is done:
Papain enzyme activities were determined by spectrophotometric detection of the product p-nitroaniline at 25 C in a a multicell holder (parallel measurements for each single inhibitor determination) at a wavelength of 405 nm.

Sequence of Cathepsin S (P25774 whole entry): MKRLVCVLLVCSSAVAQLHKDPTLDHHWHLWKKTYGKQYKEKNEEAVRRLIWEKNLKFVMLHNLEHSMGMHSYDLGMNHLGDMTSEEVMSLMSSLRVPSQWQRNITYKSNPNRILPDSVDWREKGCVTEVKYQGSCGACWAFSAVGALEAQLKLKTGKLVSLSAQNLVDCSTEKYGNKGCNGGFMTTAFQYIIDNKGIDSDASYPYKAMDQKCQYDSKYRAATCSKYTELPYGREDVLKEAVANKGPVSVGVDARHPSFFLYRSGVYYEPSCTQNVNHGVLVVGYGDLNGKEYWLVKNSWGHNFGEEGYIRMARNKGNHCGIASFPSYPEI
Sequence of Procathepsin L (P25975 whole entry): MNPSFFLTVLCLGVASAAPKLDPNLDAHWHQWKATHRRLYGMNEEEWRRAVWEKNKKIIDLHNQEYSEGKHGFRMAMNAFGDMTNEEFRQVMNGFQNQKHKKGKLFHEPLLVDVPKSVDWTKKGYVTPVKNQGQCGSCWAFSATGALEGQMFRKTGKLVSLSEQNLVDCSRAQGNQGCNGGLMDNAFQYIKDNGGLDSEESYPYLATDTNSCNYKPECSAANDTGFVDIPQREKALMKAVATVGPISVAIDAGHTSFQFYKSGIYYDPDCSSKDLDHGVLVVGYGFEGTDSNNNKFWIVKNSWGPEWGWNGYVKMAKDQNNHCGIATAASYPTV

Regarding `CSCCC(C#N)NC(=O)[C@H](Cc1ccccc1)NC(=O)OC(C)(C)C` (stereo partly specified) [Dipeptide nitrile, 7], the pKi is 6.57 in assay [1], 6.19 in assay [2], 5.44 in assay [3] and 6.60 in assay [4].

As to `C[S+](C)CCC(C#N)NC(=O)[C@H](Cc1ccccc1)NC(=O)OC(C)(C)C` (stereo partly specified) [Dipeptide nitrile, 8], the pKi is 6.28 in assay [1], 6.14 in assay [2] and 5.42 in assay [3].

With `CC(C)(C)OC(=O)N[C@@H](Cc1ccccc1)C(=O)N[C@H](C#N)CC#N` [Dipeptide nitrile, 10], the pKi was 6.05 in assay [1], 6.08 in assay [2], 5.20 in assay [3] and 5.96 in assay [4].

One may read the pKi as the negative decadic logarithm of the Ki, by convention in mol/L. Higher therefore signals a small Ki.
